# Reference: patent publication US12624068B2, “Exon skipping by peptide nucleic acid derivatives” (OliPass Corporation, priority 2016, dated 2026)
# {Fethoc} = N-terminal Fethoc cap; [C(1O2)] = modified PNA monomer acting as cytosine, C(pOq) type, 1O2; [C(1O5)] = modified PNA monomer acting as cytosine, C(pOq) type, 1O5; [A(5)] = modified PNA monomer acting as adenine, A(p) type, p=5; [A(6)] = modified PNA monomer acting as adenine, A(p) type, p=6; [G(5)] = modified PNA monomer acting as guanine, G(p) type, p=5; [G(6)] = modified PNA monomer acting as guanine, G(p) type, p=6; {NH2} = C-terminal amide; [G(G)] = code of the source, not defined here
# Tested on: 10-mer complementary DNA
# Test: Tm between PNA derivatives and 10-mer complementary DNA (N- or C-terminal)
# Type: binding
# Conditions: uncorrected
# Experimental: A mixed solution of 4 μM 10-mer PNA oligomer and 4 μM complementary 10-mer DNA or RNA in 4 mL aqueous buffer (pH 7.16, 10 mM sodium phosphate, 100 mM NaCl) in 15 mL polypropylene falcon tube was incubated at 90° C. for a minute and slowly cooled down to ambient temperature. Then the solution was transferred into a 4 mL quartz UV cuvette, and subjected to Tm measurement at 260 nm on a UV/Visible spectrophotometer as described in the prior art [PCT/KR2009/001256] or with minor modifications. The DNA and RNA for Tm measurement were purchased from Bioneer (www.bioneer.com, Dajeon, Republic of Korea) and used without further purification.
# PNA derivatives of Formula I were evaluated for their binding affinity for 10-mer DNAs complementarily targeting either the N-terminal or C-terminal. The binding affinity was assessed by the Tm value for the duplex between PNA and 10-mer complementary DNA. The duplex between PNA derivatives and DNAs of full complementarity usually show Tm values too high to be reliably determined in aqueous buffer solution. The aqueous buffer solution tends to boil off during Tm measurement.
Substance,"Tm Value, 10-mer DNA against C-Terminal","Tm Value, 10-mer DNA against N-Terminal"
"Fethoc-A(5)AG-TG(6)T-A(5)CC(1O2)-TAA-A(5)-NH2 (AAGTGTACCTAAA; splice-switching; all peptide nucleic acid (PNA), [A(5)] at 1, 7, 13, [G(6)] at 5, [C(1O2)] at 9, 5' {Fethoc}, 3' {NH2}; peptide nucleic acid written N to C) [SCN-ASO 24]",66.0 °C,77.0 °C
"Fethoc-A(5)GT-G(5)TA(5)-CC(1O2)T-A(5)AA(5)-C-NH2 (AGTGTACCTAAAC; splice-switching; all peptide nucleic acid (PNA), [A(5)] at 1, 6, 10, 12, [G(5)] at 4, [C(1O2)] at 8, 5' {Fethoc}, 3' {NH2}; peptide nucleic acid written N to C) [SCN-ASO 28]",70.0 °C,78.1 °C
"Fethoc-A(6)GA-A(6)CT-CA(6)T-CC(1O2)T-A(6)CT-TA(6)-NH2 (antisense AGAACTCATCCTACTTA; all peptide nucleic acid (PNA), [A(6)] at 1, 4, 8, 13, 17, [C(1O2)] at 11, 5' {Fethoc}, 3' {NH2}; peptide nucleic acid written N to C) [HIF-ASO 11]",61.0 °C,73.4 °C
"Fethoc-A(6)TT-TG(5)T-TA(6)C-C(1O2)CT-G(5)G-NH2 (ATTTGTTACCCTGG; all peptide nucleic acid (PNA), [A(6)] at 1, 8, [G(5)] at 5, 13, [C(1O2)] at 10, 5' {Fethoc}, 3' {NH2}; peptide nucleic acid written N to C) [SNAP-ASO 12]",74.0 °C,62.0 °C
"Fethoc-A(6)TT-TG(G)T-TA(5)C-C(1O2)CT-G(5)-NH2 (antisense ATTTGTTACCCTG; all peptide nucleic acid (PNA), [A(6)] at 1, [G(G)] at 5, [A(5)] at 8, [C(1O2)] at 10, [G(5)] at 13, 5' {Fethoc}, 3' {NH2}; peptide nucleic acid written N to C) [SNAP-ASO 9]",76.0 °C,62.0 °C
"Fethoc-AA(5)G-TG(5)T-A(5)CC(1O2)-TA(5)A-A(5)-NH2 (AAGTGTACCTAAA; splice-switching; all peptide nucleic acid (PNA), [A(5)] at 2, 7, 11, 13, [G(5)] at 5, [C(1O2)] at 9, 5' {Fethoc}, 3' {NH2}; peptide nucleic acid written N to C) [SCN-ASO 26]",72.0 °C,75.0 °C
"Fethoc-AA(5)G-TG(6)T-A(5)CC(1O2)-TAA(5)-A-NH2 (AAGTGTACCTAAA; splice-switching; all peptide nucleic acid (PNA), [A(5)] at 2, 7, 12, [G(6)] at 5, [C(1O2)] at 9, 5' {Fethoc}, 3' {NH2}; peptide nucleic acid written N to C) [SCN-ASO 22]",65.0 °C,74.0 °C
"Fethoc-AAG(6)-TG(6)T-A(5)CC(1O2)-TA(5)A-A-NH2 (AAGTGTACCTAAA; splice-switching; all peptide nucleic acid (PNA), [G(6)] at 3, 5, [A(5)] at 7, 11, [C(1O2)] at 9, 5' {Fethoc}, 3' {NH2}; peptide nucleic acid written N to C) [SCN-ASO 25]",66.0 °C,78.0 °C
"Fethoc-C(1O5)TT-A(6)TC-CTA(6)-C(1O2)TT-AA(6)C-NH2 (CTTATCCTACTTAAC; all peptide nucleic acid (PNA), [C(1O5)] at 1, [A(6)] at 4, 9, 14, [C(1O2)] at 10, 5' {Fethoc}, 3' {NH2}; peptide nucleic acid backbone) [HIF-ASO 7]",61.0 °C,69.0 °C
